We go through two compounds from article PMC12704579, “New Anticancer 4‐Aryldihydropyrimidinone‐5‐Carboxylates Targeting Hsp90” (Chemical Biology & Drug Design, 2025).

Series [1] is described as follows: Caco-2 membrane permeability (Cyprotex). The format is in vitro ADME. The following applies: human, Caco-2. The method, then: (§1) All the selected analogues were calculated to be compliant with the Lipinski rule‐of‐five guidelines for oral bioavailability. Furthermore, in vitro ADME (absorption, distribution, metabolism, excretion) properties were assessed as an outsourced service (Cyprotex Discovery Ltd., UK; part of the EvoTec Group); profiling membrane permeability (Caco‐2 cell model), hERG channel cardiotoxicity, human microsomal stability and turbidometric solubility (Table 4).

In the next series the test system is Caco-2 cell model. Nature of the series: Caco-2 membrane permeability (Cyprotex). The format is in vitro ADME. As to the method: as §1
A short description of series [2]: Human microsomal stability (Cyprotex). It counts as in vitro ADME. The following applies: human microsomes; for microsomal CLint: read-out: Metabolic stability (human microsomes) CLint; for half-life: read-out: Metabolic stability (human microsomes) Half-life. As to the method: as §1
Series [3] concerns the target T1, Recombinant human Hsp90 alpha protein (Homo sapiens, UniProt P07900).
T1 construct: human full‐length protein, expressed in Escherichia coli; His tag (C); purchased Abcam ab80369; host or cells: Escherichia coli
Nature of the series: Transcreener ADP FP Hsp90 ATPase assay. It counts as biochemical. The following applies: Recombinant human HSP90, 100 μM ATP; read-out: ATPase assay on rh-Hsp90 IC50. The method, then:
Transcreener ADP (cat. no. 3004‐1K) and ADP2 (cat. no. 3010‐1K) FP assay kits were obtained from Bellbrook Laboratories. Recombinant human Hsp90 alpha protein (active), human full‐length protein, expressed in Escherichia coli with > 90% purity and C‐terminus His tag, was purchased from Abcam (ab80369). All FP assays were carried out in black, 384‐well, low‐volume, polystyrene nonbinding microplates from Corning Life Sciences. All basic buffer components were obtained from Sigma‐Aldrich Chemical Co. 17‐AAG (Figure 1) was obtained from Abcam. Using the Transcreener ADP FP kit, the conditions for the recombinant human Hsp90 ATPase reaction were 50 mM HEPES (pH 7.4), 20 mM KCl, 2 mM EGTA, 4 mM MgCl2, and 0.01% Brij‐35 in a 10‐μL total assay volume. The final assay concentration of ATP was 100 μM for Hsp90. Due to the relatively low level of ATPase activity compared with other enzymes, the plate was incubated at 37°C and run over 1, 2 and 3 h time points. The reaction was stopped, and the ADP was detected by adding 10 μL of 50 mM HEPES (pH 7.4), 400 mM NaCl, 20 mM EDTA, 0.01% Brij35, 75 μg/mL anti‐ADP monoclonal antibody, and 4 nM ADP far red tracer. The plate was sealed, centrifuged at 600 g for 1 min, and left at room temperature for 1 h. FP readings for the Hsp90 ATPase Transcreener assays were performed on a Clariostar plate reader ([…]). A blank mP signal composed of protein, antibody, labelled ADP, but no ATP substrate gave similar mP values to those seen in the no‐protein controls. The upper limit of the assay window was defined by a no‐protein control, and the mP in the presence of heat shock protein was subtracted from this control to generate a change in polarisation (ΔmP), which was plotted on the activity graphs. Therefore, the data take into account the spontaneous hydrolysis of ATP. Each value is the mean of triplicate determinations with standard deviations (SD) shown. IC50 values were calculated using GraphPad Prism software with the nonlinear regression curve fitted to the log (inhibitor concentration) against the raw mP values on the linear portion of the standard curve.

Series [4] is described as follows: Turbidometric solubility (Cyprotex). The format is physicochemical. The following applies: kinetic from dmso stock. As to the method: as §1
A further series relates to MCF-7 cells. Nature of the series: Colony forming assay, MCF-7. The format is cell-based, human. The following applies: for IC50: Homo sapiens, MCF7, 168 h, 7 days; for % Clonogenicity (MCF-7, 10 μM): percentage of survival colonies, 7-day incubation, standardised to DMSO control. As to the method:
Human Embryonic Kidney cells (HEK‐293) and human breast cancer cells (MCF‐7, MDA‐MB‐231 and HCC1954) were cultured in complete growth media: […] 1X (Gibco); 10% v/v Fetal Bovine Serum (FBS, Sigma Dorset UK) and L‐glutamine (2 mM, Invitrogen). SW‐480‐WT cells were maintained in selective media made up of Dulbecco's Modified Eagle Medium (Gibco), enriched with […] of Geneticin Selective Antibiotic (G418 Sulfate; Gibco, Thermo Fisher). Cells were incubated at a 5% CO2 atmosphere at 37°C.
Cells were seeded in a 12‐well plate at 400 cells per well. One hour after the seeding of the cells, compounds (1 mM, 100 μM, 10 μM, 1 μM, 100 nM, 10 nM) or vehicle were added into the wells in triplicate (DMSO vehicle 0.1% and 1%). After 7 days, colonies were stained with 350 μL of crystal violet solution, incubated for 30 min at room temperature, then wells were washed in water and dried. At least the best 3 independent experiments out of 5 independent repeats were used to perform the statistical analysis of the results. Colonies were counted by GelCount Colony Counter (Oxford Optronix Ltd.) using the GelCount 1.1.8.0 software. Assay end points were normalised to 0% (DMSO only) and fitted to a semi‐log plot using at least n = 3 technical replicates (n = 6 for DMSO control and N = 3 independent replicates). The curve fit was performed using GraphPad Prism.
In view of previous reports on Hsp90 inhibitors and their effects on cancer cell viability (Eachkoti et al. [2014]) and clonogenicity (Kinzel et al. [2016]), new compounds were tested for inhibition of cell viability within both non‐tumourigenic (HEK‐293) and breast cancer cell lines (MDA‐MB‐231) at a fixed concentration of 10 μM. The well‐established CellTiter‐Blue endpoint assay was used to assess cell viability. New compounds were also assessed in a colony forming assay (MCF‐7 breast cancer cell line), used as an efficacy screening to provide an indication of the inhibition of clonogenicity for these small molecules (Table 1).

Setting [5] is: read-out: Solubility - estimated precipitation range, Calc. mid-range.
Where [6] appears, read: read-out: Solubility - estimated precipitation range, Lower-bound.
Setting [7] is: read-out: Solubility - estimated precipitation range, Upper-bound.

In brackets after ≈: the same amount, converted by molar mass. Several values for one entry are separate records, joined by “and”; a condition that tells them apart may be missing. Equal entries are not always repeated. Where two headings read alike, the source gives them in different places.

As a reminder, the efflux ratio is a quotient of directional permeabilities that is used to spot active efflux. One may read the half-life as how long it takes for the measured level to halve. One may read the IC50 as the midpoint of a concentration-inhibition curve. As a reminder, the solubility is how much of the substance goes into solution per volume. On to `COc1ccc(C2NC(=O)NC(C)=C2C(=O)OCc2ccc3c(c2)OCO3)c(F)c1` (centres unmarked) [Compound 5d, Benzo[d][1,3]dioxol‐5‐ylmethyl‐4‐(2‐Fluoro‐4‐Methoxyphenyl)‐6‐Methyl‐2‐Oxo‐1,2,3,4‐Tetrahydropyrimidine‐5‐Carboxylate], for which the efflux ratio in series [1] is greater than 2. Also, the “Caco-2 permeability Efflux ratio” value in the series on Caco-2 cell model was found to be 2.26. For the same compound, the microsomal CLint in series [2] was 34.6 µL/min/mg. The half-life in series [2] was 40.1 min. In addition, the half-inhibitory concentration (IC50) in series [3] is 3.25 µM; in the series on MCF-7 cells it was 290 nM. The figures for the solubility in series [4] (setting [5]), in series [4] (setting [6]) and in series [4] (setting [7]) were 3.75 µM (≈ 1.55 µg/mL), 1 µM (≈ 0.414 µg/mL) and 6.5 µM (≈ 2.69 µg/mL), respectively. Besides, the “% Clonogenicity (MCF-7, 10 μM)” value with MCF-7 cells was 49.75% and 49.75 ± 4.35%.

Consider `COc1ccc(COC(=O)C2=C(C)NC(=O)NC2c2ccc(Cl)cc2)cc1C` (centres unmarked) [Compound 5e, 4‐Methoxy‐3‐Methylbenzyl‐4‐(4‐Chlorophenyl)‐6‐Methyl‐2‐Oxo‐1,2,3,4‐Tetrahydropyrimidine‐5‐Carboxylate], for which, in series [1], the efflux ratio is greater than 2. Besides, the “Caco-2 permeability Efflux ratio” value with Caco-2 cell model is recorded as 2.74. Moreover, in series [2], the microsomal CLint worked out at 108 µL/min/mg. Also, in series [2], the half-life is 12.8 min. Also, the values for the 50% inhibitory concentration (IC50) (in series [3]; in the series on MCF-7 cells) were 6.4 µM and 910 nM, respectively. Moreover, the solubility in series [4] (setting [5]) is 65 µM (≈ 26.1 µg/mL); in series [4] (setting [6]) it was 30 µM (≈ 12 µg/mL); in series [4] (setting [7]), 100 µM (≈ 40.1 µg/mL). Moreover, in the series on MCF-7 cells, the “% Clonogenicity (MCF-7, 10 μM)” value was 59.96 ± 1.95%.
